Laboratory results from patent publication US6642263B2, “Modulators of Rho C activity” (Iconix Pharmaceuticals Inc., priority 2001, dated 2003).

Molecular target: T1, RhoC (Homo sapiens, UniProt P08134)
T1 construct: cDNAs corresponding to the complete open reading frame of RhoC were PCR amplified; expressed in transfected cells; host or cells: Saccharomyces cerevisiae strain EIS20-2B, pARC35B-derived expression plasmid integrated at LYS2, galactose-induced
Assay: Yeast growth restoration assay (RhoC expressed in yeast, surrogate genetic assay)
Format: cell-based, mammalian
Details: retested in dilutions from 0.5 μM to 128 μM; 30° C., 40-42 hrs, OD600
Method: Compounds of the invention are assayed for activity using any convenient biochemical or biological assay. For example, one can examine compounds for binding to recombinantly-expressed RhoC, assay compounds for their ability to reverse a RhoC-induced phenotype in a heterologous cell (see e.g., WO99/24563, incorporated herein by reference), or using one or more of the experimental protocols described in the references cited herein. […] Compounds were also examined for inhibition of stress fibers, by stimulating NIH 3T3 cells with 10 μM LPA in DMEM+0.2% FBS in the presence of test compounds for 4 hours.
(A) cDNAs corresponding to the complete open reading frame of RhoC were PCR amplified from pooled total cDNAs initially synthesized from placental, fetal brain, and fetal liver poly(A)^+ mRNAs (Clontech Laboratories, Inc.). […]
After PCR, approximately 200 ng of amplified cDNA was cotransformed with approximately 100 ng of vector into yeast and transformants were selected for leucine prototrophy. […] Plasmids from at least three independent transformants were subsequently rescued into the E. coli strain DH5alpha via electroporation, and further characterized by restriction enzyme analysis and DNA sequencing of the RhoC open reading frame. […]

T1 sequence (P08134 whole entry): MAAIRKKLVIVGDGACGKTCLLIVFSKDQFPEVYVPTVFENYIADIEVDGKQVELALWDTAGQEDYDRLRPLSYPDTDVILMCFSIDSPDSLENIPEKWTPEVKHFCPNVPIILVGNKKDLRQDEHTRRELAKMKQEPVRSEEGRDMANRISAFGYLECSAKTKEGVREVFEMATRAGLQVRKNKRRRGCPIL

Cc1ccc(NS(=O)(=O)CSc2nc3ccccc3s2)cc1 [2-(4-methylphenylsulfamyl)methylthio-benzo[d]thiazole]
potency / activity (growth restoration of RhoC-expressing yeast): only weak activity
